{
  "source": "patent US20140228407A1",
  "about": "“TETRA-PYRIDINE COMPOUNDS AND COMPOSITION FOR PROTECTING CELLS, TISSUES AND ORGANS AGAINST ISCHEMIA-REPERFUSION INJURY” (YISSUM RESEARCH DEVELOPMENT COMPANY OF THE HEBREW …, priority 2011, published 2014)",
  "key": {"CD rat": {"test_system": "CD rat", "assay": "Toxicity evaluation in rat after myocardial ischemia (Phase A: mortality, clinical observations, body weights)", "format": "in vivo", "details": "dose levels up to 2 mg/kg following myocardial ischemia", "description": "This study was conducted to evaluate the effects of the Compound #6 on cardiac function, infarct size, and Troponin I levels in a model of ischemia/reperfusion in the CD® (CR1CD® (SD)) rat. Phase A was conducted for toxicity evaluation purposes. In Phase B (the efficacy phase), two treatment groups of eight male rats were administered Compound #6 at dose levels of 0.2 and 2 mg/kg via intravenous infusion following myocardial infarction. […]\nThe animals were placed on mechanical ventilation and not intubated. […] In Phase A, the animals were recovered from anesthesia and evaluated for 4 days. […]\nIn Phase A, body weights for all animals were measured and recorded at receipt, prior to randomization, just prior to surgery, and daily for 3 days during the study. In Phase B, body weights for all animals were measured and recorded at receipt, prior to each randomization as applicable, and just prior to surgery, except that a body weight was not recorded prior to randomization for the animals received in the second shipment. In both phases, the body weights recorded at receipt and prior to randomization are not reported but are maintained in the study file."}, "[1]": {"test_system": "neonate rat cardiomyocyte cells", "assay": "Hypoxia/ischemia in neonatal rat cardiomyocyte cultures, LDH release", "format": "cell-based", "details": "30, 100 and 300 nm compound vs 1 μM TPEN; 150 min ischemia then reoxygenation", "description": "Rat hearts (1-2 days old) were sterilely removed and bathed three times in Ca^2+- and Mg^2+-free PBS to remove excess blood cells. The hearts were minced to small fragments and then agitated in a proteolytic enzyme-RDB solution prepared from a fig tree extract as described previously (Brik et al., 1990; Shneyvays et al., 2001). The RDB was diluted 1:200 in PBS at 25° C. for a few cycles of 10 min each. The supernatant suspension containing dissociated cells, to which medium containing 10% horse serum was added, was centrifuged at 500 g for 5 min. After centrifugation, the supernatant phase was discarded, and cells were resuspended in Dulbecco's modified Eagle medium supplemented with 10% heat-inactivated horse serum and 0.5% chick embryo extract. Cell suspensions were diluted to 1×10^6 cells/ml, and 300 μl was placed in 24 well plates (4 plates) collagen/gelatin-coated plastic culture dishes. Cultures were incubated in a humidified atmosphere of 5% CO2 and 95% air at 37° C. […] The growth medium was replaced every 3 days. The experiments were performed in vitro on these cardiomyocyte cultures after 3 to 5 days. […]\nLDH activity was determined using LDH-L kit (Thermo Trace, Melbourne, Australia) within the cardiac cell medium (PBS). […] LDH enzymatic activity was measured in a spectrophotometer at a wavelength of 340 nm at 30° C. […]"}},
  "data": [
    {"smiles": "Cc1ccc(CN(CCN(Cc2ccc(C)cn2)Cc2ccc(C)cn2)Cc2ccc(C)cn2)nc1", "note": "[Compound #6]", "values": [
      {"measurement": "toxicity in the rat (overall conclusion)", "setting": "CD rat", "result": "not associated with any toxicity"},
      {"measurement": "protective effect against hypoxic insult (LDH release) compared with TPEN, FIG. 1A", "setting": "[1]", "result": "significantly better protective outcome from hypoxia than TPEN"}
    ]}
  ]
}
